System: promoter of the ampicillin resistance gene (expression vector DNA)
Experiment: Binding of PNA-peptide-hybrids to double stranded vector DNA (inhibition of Earl cleavage at the PNA binding site)
Details: 25 μM PNA-peptide-hybrid, 100 ng vector
Method: 100 ng expression vector were incubated in TE (pH 7,8) with 25 μM of different PNA-peptide-hybrids at either 65° C. or 37° C. for five minutes to three hours. The PNA-sequence NH2-CTCTTCCTTTTTC-COOH (SEQ ID NO: 6) used here, binds to the promoter of the ampicillin resistance gene.
At the C-terminus either a peptide of 21 amino acids (Peptide 1) or 27 amino acids (Peptide 2) or a spacer of 10 AEEA-units (Fmoc-AEEA-OH Spacer, PerSeptive Biosystems Inc., Framingham, USA) followed by 27 amino acids (Peptide 3) is located. The binding assays were subsequently incubated with restriction endonuclease Earl. Restricted DNA was stained with YOYO (Molecular Probes, Inc., Eugene, Oreg., USA) separated on an agarose gel and quantified with a fluorescence scanner (Image Plate Reader FLA 2000, analysis software L-Process, version 1.6, Fuji Photo Film Co., Ltd., Tokio). Cleavage of DNA by restriction endonuclease Earl is inhibited at the PNA binding site. Additional Earl restriction sites serve as internal control of the reaction.

Row | Substance | Portion of peptide-labelled DNA shown as percentage of input DNA (37 °C, 60 min) [%] | Portion of peptide-labelled DNA shown as percentage of input DNA (37 °C, 120 min) [%] | Portion of peptide-labelled DNA shown as percentage of input DNA (37 °C, 180 min) [%] | Portion of peptide-labelled DNA shown as percentage of input DNA (65 °C, 5 min) [%] | Portion of peptide-labelled DNA shown as percentage of input DNA (65 °C, 10 min) [%] | Portion of peptide-labelled DNA shown as percentage of input DNA (65 °C, 15 min) [%]
1 | H-GKPSSDDEATADSQHSTPPKKKRKVED-OH [Peptide 2] | 90 | 91 | 94 | 96 | 97 | 97
2 | NH2-(AEEA)10-GKPSSDDEATADSQHSTPPKKKRKVED-COOH [Peptide 3] | 74 | 76 | 90 | 91 | 95 | 95
3 | H-GKPTADDQHSTPPKKKRKVED-OH [Peptide 1] | 85 | 91 | 94 | 94 | 96 | 96
